Assay results reported in ChEMBL document CHEMBL1909046, “DrugMatrix in vitro pharmacology data”.
pIC50, pKi: −log10 of the molar value.

Columns and labels:
Cytochrome P450 1A2 = target: T1, Cytochrome P450 1A2 (Homo sapiens, UniProt P05177)
T1 sequence (P05177 whole entry): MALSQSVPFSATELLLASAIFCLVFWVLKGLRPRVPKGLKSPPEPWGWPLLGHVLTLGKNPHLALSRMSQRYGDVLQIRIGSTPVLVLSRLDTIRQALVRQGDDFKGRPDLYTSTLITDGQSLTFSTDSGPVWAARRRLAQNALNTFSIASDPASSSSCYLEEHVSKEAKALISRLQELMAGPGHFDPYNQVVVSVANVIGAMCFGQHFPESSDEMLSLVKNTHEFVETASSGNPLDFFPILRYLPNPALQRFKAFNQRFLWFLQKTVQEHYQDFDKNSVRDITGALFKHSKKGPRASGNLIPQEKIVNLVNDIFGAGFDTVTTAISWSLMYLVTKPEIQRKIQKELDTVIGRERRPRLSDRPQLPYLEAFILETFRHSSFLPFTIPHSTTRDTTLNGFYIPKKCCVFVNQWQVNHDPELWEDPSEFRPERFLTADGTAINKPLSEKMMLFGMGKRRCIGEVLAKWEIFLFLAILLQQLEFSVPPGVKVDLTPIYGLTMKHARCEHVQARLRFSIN

Androgen receptor = target: T2, Androgen receptor (Rattus norvegicus, UniProt P15207)
T2 sequence (P15207 whole entry): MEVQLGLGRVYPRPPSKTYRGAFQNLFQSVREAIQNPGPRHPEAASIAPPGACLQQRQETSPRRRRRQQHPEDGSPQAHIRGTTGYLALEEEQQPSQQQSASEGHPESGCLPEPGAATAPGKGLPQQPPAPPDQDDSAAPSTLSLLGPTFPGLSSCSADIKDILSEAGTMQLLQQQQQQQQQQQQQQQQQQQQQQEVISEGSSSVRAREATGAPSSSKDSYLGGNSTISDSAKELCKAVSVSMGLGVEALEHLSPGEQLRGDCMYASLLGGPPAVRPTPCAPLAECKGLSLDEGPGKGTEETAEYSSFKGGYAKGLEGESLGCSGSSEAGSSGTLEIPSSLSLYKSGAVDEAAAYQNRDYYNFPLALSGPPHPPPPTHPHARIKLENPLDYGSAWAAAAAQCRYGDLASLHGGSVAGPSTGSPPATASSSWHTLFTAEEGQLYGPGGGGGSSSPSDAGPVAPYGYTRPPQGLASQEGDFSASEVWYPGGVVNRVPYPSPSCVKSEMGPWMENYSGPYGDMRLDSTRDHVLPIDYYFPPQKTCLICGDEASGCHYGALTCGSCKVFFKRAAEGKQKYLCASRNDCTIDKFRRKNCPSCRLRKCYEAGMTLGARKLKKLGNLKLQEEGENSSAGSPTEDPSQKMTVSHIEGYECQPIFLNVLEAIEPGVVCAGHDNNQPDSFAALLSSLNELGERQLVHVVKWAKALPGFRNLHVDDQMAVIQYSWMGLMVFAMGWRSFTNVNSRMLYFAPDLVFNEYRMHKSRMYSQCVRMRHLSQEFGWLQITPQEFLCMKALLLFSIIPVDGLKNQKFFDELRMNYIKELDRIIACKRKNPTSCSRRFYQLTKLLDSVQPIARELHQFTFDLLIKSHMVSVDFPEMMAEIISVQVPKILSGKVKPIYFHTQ

Cytochrome P450 2C9 = Cytochrome P450 2C9 (Homo sapiens, UniProt P11712)
Cytochrome P450 2C19 = Cytochrome P450 2C19 (Homo sapiens, UniProt P33261)
Chain of Cytochrome P450 2C19 (P33261 whole entry): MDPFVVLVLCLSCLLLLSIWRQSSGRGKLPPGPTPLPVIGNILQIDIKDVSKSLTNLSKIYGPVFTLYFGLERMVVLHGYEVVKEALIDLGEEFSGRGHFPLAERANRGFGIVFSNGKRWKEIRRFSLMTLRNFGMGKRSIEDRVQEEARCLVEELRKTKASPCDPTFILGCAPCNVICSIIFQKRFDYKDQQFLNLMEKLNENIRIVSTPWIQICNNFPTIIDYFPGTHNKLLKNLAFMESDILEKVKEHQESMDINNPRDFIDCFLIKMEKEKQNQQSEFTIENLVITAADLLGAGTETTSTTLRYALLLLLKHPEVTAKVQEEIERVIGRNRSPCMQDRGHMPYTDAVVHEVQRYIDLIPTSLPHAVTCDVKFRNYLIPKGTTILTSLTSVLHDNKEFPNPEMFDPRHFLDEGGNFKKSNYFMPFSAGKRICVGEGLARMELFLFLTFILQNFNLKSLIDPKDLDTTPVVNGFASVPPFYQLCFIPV

Chain of Cytochrome P450 2C9 (P11712 whole entry): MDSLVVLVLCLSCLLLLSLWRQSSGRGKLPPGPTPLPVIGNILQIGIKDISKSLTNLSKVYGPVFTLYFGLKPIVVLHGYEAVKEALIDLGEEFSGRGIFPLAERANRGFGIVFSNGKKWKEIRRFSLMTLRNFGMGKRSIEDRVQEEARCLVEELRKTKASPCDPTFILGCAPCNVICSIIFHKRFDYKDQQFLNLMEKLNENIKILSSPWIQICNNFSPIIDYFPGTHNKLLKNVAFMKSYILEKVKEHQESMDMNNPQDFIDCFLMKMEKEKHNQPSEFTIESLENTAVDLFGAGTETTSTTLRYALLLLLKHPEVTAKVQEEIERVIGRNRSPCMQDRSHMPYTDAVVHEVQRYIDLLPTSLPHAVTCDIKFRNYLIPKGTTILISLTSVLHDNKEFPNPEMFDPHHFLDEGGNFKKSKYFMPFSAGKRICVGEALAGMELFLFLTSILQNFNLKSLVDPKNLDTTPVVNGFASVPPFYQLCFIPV

Structure (SMILES)	pIC50 (Cytochrome P450 1A2)	other results
CC(=O)Nc1ccc2c(c1)Cc1ccccc1-2 [2-ACETYLAMINOFLUORENE]	7.80	–
CC(C)(c1ccc(O)cc1)c1ccc(O)cc1 [BISPHENOL A]	–	pIC50 (Androgen receptor): 4.47; pKi (Androgen receptor): 4.65
O=c1[nH]c2ccccc2c2ccccc12	7.80	–
CN(CCOc1ccc(C[C@H](Nc2ccccc2C(=O)c2ccccc2)C(=O)O)cc1)c1ccccn1	–	pIC50 (Cytochrome P450 2C9): 5.40
c1ccc2c(c1)Nc1ccccc1S2 [PHENOTHIAZINE]	7.80	–
CC(N)Cc1c[nH]c2ccc(OCc3cccs3)cc12 (stereo not given) [BW-723C86]	6.06	–
c1ccc(Cn2ccnc2)cc1	6.70	–
COc1cc([C@@H]2c3cc4c(cc3[C@H](O)[C@H]3COC(=O)[C@H]23)OCO4)cc(OC)c1OC [PODOFILOX]	–	pIC50 (Cytochrome P450 2C19): 5.30; pIC50 (Cytochrome P450 2C9): 5.40
